Our source for the IC50 values is patent US20140357655A1, “SPIROINDOLINE DERIVATIVES AS GONADOTROPIN- RELEASING HORMONE RECEPTOR ANTAGONISTS” (Bayer Intellectual Property GmbH, priority 2012, published 2014).

This assay addresses T1, human GnRH receptor (Homo sapiens, UniProt P30968).
T1 sequence (P30968 1-328): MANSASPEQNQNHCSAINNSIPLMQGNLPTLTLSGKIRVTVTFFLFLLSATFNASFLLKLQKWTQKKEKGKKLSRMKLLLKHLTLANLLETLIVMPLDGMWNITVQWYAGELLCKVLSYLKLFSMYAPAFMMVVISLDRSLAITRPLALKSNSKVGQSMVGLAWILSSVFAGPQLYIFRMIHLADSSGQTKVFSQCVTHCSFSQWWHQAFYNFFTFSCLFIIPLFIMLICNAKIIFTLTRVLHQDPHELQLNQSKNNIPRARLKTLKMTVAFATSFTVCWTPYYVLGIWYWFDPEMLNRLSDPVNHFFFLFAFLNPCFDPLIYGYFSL
The assay can be described thus: IP-One HTRF assay with buserelin (at EC80) stimulation. It counts as cell-based. Particulars: CHO cells stably expressing human GnRH receptor, read-out: Potency in IP-One HTRF assay, given as IC50. In outline:
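Ten-point duplicate titrations (20 μM to 1 nM) were fitted by 4-parameter model to normalized 665/620 nm HTRF ratios, 0% = no compound, 100% = no agonist. Assay measured IP1 accumulation in human GnRH-R CHO cells stimulated 1 h at 37° C with EC80 buserelin, then lysed 1 h at 22° C.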

The term IC50 denotes the point on the concentration scale where inhibition reaches its midpoint.

In the case of `COc1cccc(S(=O)(=O)N2c3ccc(C(=O)NCc4ncccc4C(F)(F)F)cc3C3(CCS(=O)(=O)CC3)C2C2CC2)c1` (single isomer, unassigned) [Example 39.2, 2-cyclopropyl-1-[(3-methoxyphenyl)sulfonyl]-N-{[3-(trifluoromethyl)pyridin-2-yl]methyl}-1,2,2′,3′,5′,6′-hexahydrospiro[indole-3,4′-thiopyran]-5-carboxamide 1′,1′-dioxide], the IC50 was 565 nM.

For the compound `COc1cccc(S(=O)(=O)N2c3ccc(C(=O)NCc4ccccc4C(F)(F)F)cc3C3(CCS(=O)(=O)CC3)C2C2CC2)c1` (single isomer, unassigned) [Example 40.1, 2-cyclopropyl-1-[(3-methoxyphenyl)sulfonyl]-N-[2-(trifluoromethyl)benzyl]-1,2,2′,3′,5′,6′-hexahydrospiro[indole-3,4′-thiopyran]-5-carboxamide 1′,1′-dioxide], the IC50 was 19 nM.

For `COc1cccc(S(=O)(=O)N2c3ccc(C(=O)NCc4ccccc4C(F)(F)F)cc3C3(CCS(=O)(=O)CC3)C2C2CC2)c1` (single isomer, unassigned) [Example 40.2, 2-cyclopropyl-1-[(3-methoxyphenyl)sulfonyl]-N-[2-(trifluoromethyl)benzyl]-1,2,2′,3′,5′,6′-hexahydrospiro[indole-3,4′-thiopyran]-5-carboxamide 1′,1′-dioxide], the half-inhibitory concentration (IC50) was 632 nM.

As to `COc1cccc(S(=O)(=O)N2c3ccc(C(=O)NCc4ncccc4Cl)cc3C3(CCS(=O)(=O)CC3)C2C2CC2)c1` (single isomer, unassigned) [Example 41.1, N-[(3-chloropyridin-2-yl)methyl]-2-cyclopropyl-1-[(3-methoxyphenyl)sulfonyl]-1,2,2′,3′,5′,6′-hexahydrospiro[indole-3,4′-thiopyran]-5-carboxamide 1′,1′-dioxide], the IC50 stood at 102 nM.

On to `COc1cccc(S(=O)(=O)N2c3ccc(C(=O)NCc4ncccc4Cl)cc3C3(CCS(=O)(=O)CC3)C2C2CC2)c1` (single isomer, unassigned) [Example 41.2, N-[(3-chloropyridin-2-yl)methyl]-2-cyclopropyl-1-[(3-methoxyphenyl)sulfonyl]-1,2,2′,3′,5′,6′-hexahydrospiro[indole-3,4′-thiopyran]-5-carboxamide 1′,1′-dioxide], for which the IC50 is 428 nM.

For the compound `COc1cccc(S(=O)(=O)N2c3ccc(C(=O)Nc4cccc(S(N)(=O)=O)c4)cc3C3(CCS(=O)(=O)CC3)C2C2CC2)c1` (single isomer, unassigned) [Example 42.1, 2-cyclopropyl-1-[(3-methoxyphenyl)sulfonyl]-N-(3-sulfamoylphenyl)-1,2,2′,3′,5′,6′-hexahydrospiro[indole-3,4′-thiopyran]-5-carboxamide 1′,1′-dioxide], the half-inhibitory concentration (IC50) was found to be 437 nM.

In the case of `COc1cccc(S(=O)(=O)N2c3ccc(C(=O)Nc4cccc(S(N)(=O)=O)c4)cc3C3(CCS(=O)(=O)CC3)C2C2CC2)c1` (single isomer, unassigned) [Example 42.2, 2-cyclopropyl-1-[(3-methoxyphenyl)sulfonyl]-N-(3-sulfamoylphenyl)-1,2,2′,3′,5′,6′-hexahydrospiro[indole-3,4′-thiopyran]-5-carboxamide 1′,1′-dioxide], the 50% inhibitory concentration (IC50) is 99 nM.

For the compound `COc1cccc(S(=O)(=O)N2c3ccc(C(=O)Nc4cccc(S(=O)(=O)N(C)C)c4)cc3C3(CCS(=O)(=O)CC3)C2C2CC2)c1` (single isomer, unassigned) [Example 43.1, 2-cyclopropyl-N-[3-(N,N-dimethylsulfamoyl)phenyl]-1-[(3-methoxyphenyl)sulfonyl]-1,2,2′,3′,5′,6′-hexahydrospiro[indole-3,4′-thiopyran]-5-carboxamide 1′,1′-dioxide], the concentration for half-maximal inhibition (IC50) came out at 344 nM.

With `COc1cccc(S(=O)(=O)N2c3ccc(C(=O)Nc4cccc(S(=O)(=O)N(C)C)c4)cc3C3(CCS(=O)(=O)CC3)C2C2CC2)c1` (single isomer, unassigned) [Example 43.2, 2-cyclopropyl-N-[3-(N,N-dimethylsulfamoyl)phenyl]-1-[(3-methoxyphenyl)sulfonyl]-1,2,2′,3′,5′,6′-hexahydrospiro[indole-3,4′-thiopyran]-5-carboxamide 1′,1′-dioxide], the 50% inhibitory concentration (IC50) amounted to 36 nM.

As to `COc1cccc(S(=O)(=O)N2c3ccc(C(=O)NCc4ccccc4Cl)cc3C3(CCS(=O)(=O)CC3)C2C2CC2)c1` (single isomer, unassigned) [Example 44.1, N-(2-chlorobenzyl)-2-cyclopropyl-1-[(3-methoxyphenyl)sulfonyl]-1,2,2′,3′,5′,6′-hexahydrospiro[indole-3,4′-thiopyran]-5-carboxamide 1′,1′-dioxide], the IC50 was determined as 25 nM.

For the compound `COc1cccc(S(=O)(=O)N2c3ccc(C(=O)NCc4ccccc4Cl)cc3C3(CCS(=O)(=O)CC3)C2C2CC2)c1` (single isomer, unassigned) [Example 44.2, N-(2-chlorobenzyl)-2-cyclopropyl-1-[(3-methoxyphenyl)sulfonyl]-1,2,2′,3′,5′,6′-hexahydrospiro[indole-3,4′-thiopyran]-5-carboxamide 1′,1′-dioxide], the IC50 was found to be 302 nM.

With `COc1cccc(S(=O)(=O)N2c3ccc(C(=O)NCc4ncccc4C)cc3C3(CCS(=O)(=O)CC3)C2C2CC2)c1` (single isomer, unassigned) [Example 45.1, 2-cyclopropyl-1-[(3-methoxyphenyl)sulfonyl]-N-[(3-methylpyridin-2-yl)methyl]-1,2,2′,3′,5′,6′-hexahydrospiro[indole-3,4′-thiopyran]-5-carboxamide 1′,1′-dioxide], the IC50 was found to be 253 nM.

`COc1cccc(S(=O)(=O)N2c3ccc(C(=O)NCc4ncccc4C)cc3C3(CCS(=O)(=O)CC3)C2C2CC2)c1` (single isomer, unassigned) [Example 45.2, 2-cyclopropyl-1-[(3-methoxyphenyl)sulfonyl]-N-[(3-methylpyridin-2-yl)methyl]-1,2,2′,3′,5′,6′-hexahydrospiro[indole-3,4′-thiopyran]-5-carboxamide 1′,1′-dioxide]: the IC50 came to 4460 nM.

For `COc1cccc(S(=O)(=O)N2c3ccc(C(=O)NCc4ccc(F)cc4Cl)cc3C3(CCS(=O)(=O)CC3)C2C2CC2)c1` (single isomer, unassigned) [Example 46.1, N-(2-chloro-4-fluorobenzyl)-2-cyclopropyl-1-[(3-methoxyphenyl)sulfonyl]-1,2,2′,3′,5′,6′-hexahydrospiro[indole-3,4′-thiopyran]-5-carboxamide 1′,1′-dioxide], the concentration for half-maximal inhibition (IC50) came out at 50 nM.

With `COc1cccc(S(=O)(=O)N2c3ccc(C(=O)NCc4ccc(F)cc4Cl)cc3C3(CCS(=O)(=O)CC3)C2C2CC2)c1` (single isomer, unassigned) [Example 46.2, N-(2-chloro-4-fluorobenzyl)-2-cyclopropyl-1-[(3-methoxyphenyl)sulfonyl]-1,2,2′,3′,5′,6′-hexahydrospiro[indole-3,4′-thiopyran]-5-carboxamide 1′,1′-dioxide], the IC50 was 732 nM.

`COc1cccc(S(=O)(=O)N2c3ccc(C(=O)NCc4ccccc4F)cc3C3(CCS(=O)(=O)CC3)C2C2CC2)c1` (single isomer, unassigned) [Example 47.1, 2-cyclopropyl-N-(2-fluorobenzyl)-1-[(3-methoxyphenyl)sulfonyl]-1,2,2′,3′,5′,6′-hexahydrospiro[indole-3,4′-thiopyran]-5-carboxamide 1′,1′-dioxide]: the IC50 stood at 73 nM.

Consider `COc1cccc(S(=O)(=O)N2c3ccc(C(=O)NCc4ccccc4F)cc3C3(CCS(=O)(=O)CC3)C2C2CC2)c1` (single isomer, unassigned) [Example 47.2, 2-cyclopropyl-N-(2-fluorobenzyl)-1-[(3-methoxyphenyl)sulfonyl]-1,2,2′,3′,5′,6′-hexahydrospiro[indole-3,4′-thiopyran]-5-carboxamide 1′,1′-dioxide], for which the concentration for half-maximal inhibition (IC50) came out at 8870 nM.

Consider `O=C(O)c1cccc(NC(=O)c2ccc3c(c2)C2(CCS(=O)(=O)CC2)C(C2CC2)N3S(=O)(=O)c2ccc(F)cc2)c1` (single isomer, unassigned) [Example 49.1, 3-[({2-cyclopropyl-1-[(4-fluorophenyl)sulfonyl]-1′,1′-dioxido-1,2,2′,3′,5′,6′-hexahydrospiro[indole-3,4′-thiopyran]-5-yl}carbonyl)amino]benzoic acid], for which the IC50 was determined as 40 nM.

Consider `O=C(O)c1cccc(NC(=O)c2ccc3c(c2)C2(CCS(=O)(=O)CC2)C(C2CC2)N3S(=O)(=O)c2ccc(F)cc2)c1` (single isomer, unassigned) [Example 49.2, 3-[({2-cyclopropyl-1-[(4-fluorophenyl)sulfonyl]-1′,1′-dioxido-1,2,2′,3′,5′,6′-hexahydrospiro[indole-3,4′-thiopyran]-5-yl}carbonyl)amino]benzoic acid], for which the IC50 was found to be 109 nM.

Consider `NC(=O)c1cccc(NC(=O)c2ccc3c(c2)C2(CCS(=O)(=O)CC2)C(C2CC2)N3S(=O)(=O)c2ccc(F)cc2)c1` (single isomer, unassigned) [Example 51.1, N-(3-carbamoylphenyl)-2-cyclopropyl-1-[(4-fluorophenyl)sulfonyl]-1,2,2′,3′,5′,6′-hexahydrospiro[indole-3,4′-thiopyran]-5-carboxamide 1′,1′-dioxide], for which the IC50 was determined as 80 nM.
